Test results as given in ChEMBL document CHEMBL4819019, “Design, synthesis, antibacterial activity and toxicity of novel quaternary ammonium compounds based on pyridoxine and fatty acids” (Eur J Med Chem, 2021).

Experiments:
Staphylococcus aureus [1] = experiment: Antibacterial activity against clinical isolate methicillin-resistant Staphylococcus aureus 1131 measured after 24 hrs by broth microdilution method; format: functional
Escherichia coli [2] = experiment: Antibacterial activity against clinical isolate Escherichia coli 718 measured after 24 hrs by broth microdilution method; format: functional
[3] = system: Staphylococcus intermedius; experiment: Antibacterial activity against clinical isolate methicillin-resistant Staphylococcus intermedius 1143 measured after 24 hrs by broth microdilution method; format: functional
[4] = system: Staphylococcus ureilyticus; experiment: Antibacterial activity against clinical isolate Staphylococcus ureilyticus 1972 measured after 24 hrs by broth microdilution method; format: functional
Staphylococcus aureus [5] = experiment: Antibacterial activity against Staphylococcus aureus ATCC 29213 measured after 24 hrs by broth microdilution method; format: functional
[6] = Genotoxicity in Salmonella typhimurium TA1537 assessed as number of revertant by Ames spot test relative to solvent control; format: toxicity; conditions: salmonella enterica subsp. enterica serovar typhimurium
Pseudomonas aeruginosa [7] = experiment: Antibacterial activity against Pseudomonas aeruginosa ATCC 27853 measured after 24 hrs by broth microdilution method; format: functional
Klebsiella sp. = experiment: Antibacterial activity against clinical isolate Klebsiella sp. 11 measured after 24 hrs by broth microdilution method; format: functional
Pseudomonas sp. = experiment: Antibacterial activity against clinical isolate Pseudomonas sp. 5 measured after 24 hrs by broth microdilution method; format: functional
[8] = Genotoxicity in Salmonella typhimurium TA1535/pSK1002 assessed as DNA-damage activity by measuring beta-galactosidase activity at 7.5 ug/ml measured by SOS-chromotest relative to solvent control; format: toxicity; conditions: salmonella enterica subsp. enterica serovar typhimurium; dose 7.5 µg/ml
[9] = Genotoxicity in Salmonella typhimurium TA1535/pSK1002 assessed as DNA-damage activity by measuring beta-galactosidase activity at 150 ug/ml measured by SOS-chromotest relative to solvent control; format: toxicity; conditions: salmonella enterica subsp. enterica serovar typhimurium; dose 150 µg/ml
Enterococcus faecalis [10] = experiment: Antibacterial activity against clinical isolate Enterococcus faecalis 23 measured after 24 hrs by broth microdilution method; format: functional
[11] = Genotoxicity in Salmonella typhimurium TA1535/pSK1002 assessed as DNA-damage activity by measuring beta-galactosidase activity at 750 ug/ml measured by SOS-chromotest relative to solvent control; format: toxicity; conditions: salmonella enterica subsp. enterica serovar typhimurium; dose 750 µg/ml
[12] = Genotoxicity in Salmonella typhimurium TA100 assessed as number of revertant by Ames spot test relative to solvent control; format: toxicity; conditions: salmonella enterica subsp. enterica serovar typhimurium
Pseudomonas aeruginosa [13] = experiment: Antibacterial activity against clinical isolate Pseudomonas aeruginosa 1945 measured after 24 hrs by broth microdilution method; format: functional
[14] = Cytotoxicity against human skin fibroblasts assessed as cell viability measured after 72 hrs by MTT assay; format: cell-based, Fibroblast
[15] = Cytotoxicity against human mesenchymal stem cells assessed as cell viability measured after 72 hrs by MTT assay; format: cell-based
[16] = Genotoxicity in Salmonella typhimurium TA1535/pSK1002 assessed as DNA-damage activity by measuring beta-galactosidase activity at 15 ug/ml measured by SOS-chromotest relative to solvent control; format: toxicity; conditions: salmonella enterica subsp. enterica serovar typhimurium; dose 15 µg/ml
Klebsiella pneumoniae = experiment: Antibacterial activity against clinical isolate Klebsiella pneumoniae 1813 measured after 24 hrs by broth microdilution method; format: functional
Bacillus subtilis = experiment: Antibacterial activity against Bacillus subtilis 168 measured after 24 hrs by broth microdilution method; format: functional
[17] = Cytotoxicity against human HEK293 cells assessed as cell viability measured after 72 hrs by MTT assay; format: cell-based
[18] = Genotoxicity in Salmonella typhimurium TA1535/pSK1002 assessed as DNA-damage activity by measuring beta-galactosidase activity at 75 ug/ml measured by SOS-chromotest relative to solvent control; format: toxicity; conditions: salmonella enterica subsp. enterica serovar typhimurium; dose 75 µg/ml
Staphylococcus aureus [19] = experiment: Antibacterial activity against clinical isolate Staphylococcus aureus 25 measured after 24 hrs by broth microdilution method; format: functional
Enterococcus faecalis [20] = experiment: Antibacterial activity against clinical isolate Enterococcus faecalis 3063 measured after 24 hrs by broth microdilution method; format: functional
Moraxella = experiment: Antibacterial activity against clinical isolate Moraxella 765 measured after 24 hrs by broth microdilution method; format: functional
Acinetobacter sp. = experiment: Antibacterial activity against clinical isolate Acinetobacter sp. 3 measured after 24 hrs by broth microdilution method; format: functional
Staphylococcus aureus [21] = experiment: Antibacterial activity against clinical isolate methicillin-resistant Staphylococcus aureus 1065 measured after 24 hrs by broth microdilution method; format: functional
Staphylococcus aureus [22] = experiment: Antibacterial activity against clinical isolate methicillin-resistant Staphylococcus aureus 983 measured after 24 hrs by broth microdilution method; format: functional
Serratia marcescens = experiment: Antibacterial activity against clinical isolate Serratia marcescens 1966 measured after 24 hrs by broth microdilution method; format: functional
Micrococcus luteus = experiment: Antibacterial activity against Micrococcus luteus clinical isolate measured after 24 hrs by broth microdilution method; format: functional
[23] = Genotoxicity in Salmonella typhimurium TA98 assessed as number of revertant by Ames spot test relative to solvent control; format: toxicity; conditions: salmonella enterica subsp. enterica serovar typhimurium
[24] = system: Staphylococcus intermedius; experiment: Antibacterial activity against clinical isolate methicillin-resistant Staphylococcus intermedius 1061 measured after 24 hrs by broth microdilution method; format: functional
Staphylococcus aureus [25] = experiment: Antibacterial activity against clinical isolate methicillin-resistant Staphylococcus aureus 713 measured after 24 hrs by broth microdilution method; format: functional
[26] = Genotoxicity in Salmonella typhimurium TA1535 assessed as number of revertant by Ames spot test relative to solvent control; format: toxicity; conditions: salmonella enterica subsp. enterica serovar typhimurium
Proteus sp. = experiment: Antibacterial activity against clinical isolate Proteus sp. 17 measured after 24 hrs by broth microdilution method; format: functional; conditions: Proteus sp. (in: enterobacteria)
[27] = Lipophilicity, logP of the compound; format: physicochemical; conditions: octanol/water
Staphylococcus aureus [28] = experiment: Antibacterial activity against clinical isolate methicillin-resistant Staphylococcus aureus 1053 measured after 24 hrs by broth microdilution method; format: functional
Escherichia coli [29] = experiment: Antibacterial activity against Escherichia coli MG 1655 measured after 24 hrs by broth microdilution method; format: functional

SMILES	MIC (Staphylococcus aureus [1])	MIC (Escherichia coli [2])	MIC [3]	MIC [4]	MIC (Staphylococcus aureus [5])	Ratio [6]	MIC (Pseudomonas aeruginosa [7])	MIC (Klebsiella sp.)	MIC (Pseudomonas sp.)	Ratio [8]	Ratio [9]	MIC (Enterococcus faecalis [10])	Ratio [11]	Ratio [12]	MIC (Bacillus subtilis)	MIC (Micrococcus luteus)	Ratio [23]	Ratio [26]	logP [27]	MIC (Escherichia coli [29])	other results
CCCCCCCCCCCCCC(=O)OCC[N+](C)(C)Cc1cnc(C)c2c1COC(C)(C)O2.[Cl-]	16 µg/mL	32 µg/mL	8 µg/mL	> 64 µg/mL	0.5 µg/mL	0.02	1 µg/mL	64 µg/mL	64 µg/mL	1.6	0.6	4 µg/mL	0.4	1.4	1 µg/mL	0.5 µg/mL	4.6	0.9	2.14	8 µg/mL	MIC (Pseudomonas aeruginosa [13]): 64 µg/mL; CC50 at 72 h [14]: 1.94 µg/mL; CC50 at 72 h [15]: 1.08 µg/mL; Ratio [16]: 1.6; MIC (Klebsiella pneumoniae): 64 µg/mL; CC50 at 72 h [17]: 0.17 µg/mL; Ratio [18]: 1.2; MIC (Staphylococcus aureus [19]): 8 µg/mL; MIC (Enterococcus faecalis [20]): 4 µg/mL; MIC (Moraxella): 64 µg/mL; MIC (Acinetobacter sp.): 64 µg/mL; MIC (Staphylococcus aureus [21]): 8 µg/mL; MIC (Staphylococcus aureus [22]): 64 µg/mL; MIC (Serratia marcescens): 64 µg/mL; MIC [24]: 8 µg/mL; MIC (Staphylococcus aureus [25]): 8 µg/mL; MIC (Proteus sp.): > 64 µg/mL; MIC (Staphylococcus aureus [28]): 8 µg/mL
CCCCCCCCCCCCCC(=O)NCC[N+](C)(C)Cc1cnc(C)c2c1COC(C)(C)O2.[Cl-]	16 µg/mL	32 µg/mL	4 µg/mL	64 µg/mL	2 µg/mL	0.06	2 µg/mL	64 µg/mL	64 µg/mL	1.5	0.5	2 µg/mL	0.4	1.3	4 µg/mL	4 µg/mL	1.7	0.8	1.41	8 µg/mL	MIC (Pseudomonas aeruginosa [13]): 64 µg/mL; CC50 at 72 h [14]: 3.03 µg/mL; CC50 at 72 h [15]: 2.16 µg/mL; Ratio [16]: 1.5; MIC (Klebsiella pneumoniae): 4 µg/mL; CC50 at 72 h [17]: 1.18 µg/mL; Ratio [18]: 0.7; MIC (Staphylococcus aureus [19]): 4 µg/mL; MIC (Enterococcus faecalis [20]): 2 µg/mL; MIC (Moraxella): 64 µg/mL; MIC (Acinetobacter sp.): 64 µg/mL; MIC (Staphylococcus aureus [21]): 8 µg/mL; MIC (Staphylococcus aureus [22]): 64 µg/mL; MIC (Serratia marcescens): 64 µg/mL; MIC [24]: 4 µg/mL; MIC (Staphylococcus aureus [25]): 4 µg/mL; MIC (Proteus sp.): > 64 µg/mL; MIC (Staphylococcus aureus [28]): 4 µg/mL
COS(C)(=O)=O [METHANESULFONIC ACID METHYL ESTER]														2.7				30			
CCCCCCCCCCCCCC(=O)NCCC[N+](C)(C)Cc1cnc(C)c2c1COC(C)(C)O2.[Cl-]					0.5 µg/mL	0.03	8 µg/mL			1.5	0.5		1	2.5	2 µg/mL	1 µg/mL	2.6	0.4	1.47	8 µg/mL	CC50 at 72 h [14]: 3.14 µg/mL; CC50 at 72 h [15]: 2.21 µg/mL; Ratio [16]: 1.5; CC50 at 72 h [17]: 1.61 µg/mL; Ratio [18]: 0.7
CCCCCCCCCCCCCCCCCC(=O)NCCC[N+](C)(C)Cc1cnc(C)c2c1COC(C)(C)O2.[Cl-]	16 µg/mL	> 64 µg/mL	16 µg/mL	> 64 µg/mL	4 µg/mL		8 µg/mL	64 µg/mL	64 µg/mL			4 µg/mL			8 µg/mL	4 µg/mL			3.25	> 64 µg/mL	MIC (Pseudomonas aeruginosa [13]): > 64 µg/mL; MIC (Klebsiella pneumoniae): > 64 µg/mL; MIC (Staphylococcus aureus [19]): 8 µg/mL; MIC (Enterococcus faecalis [20]): 4 µg/mL; MIC (Moraxella): > 64 µg/mL; MIC (Acinetobacter sp.): 64 µg/mL; MIC (Staphylococcus aureus [21]): 8 µg/mL; MIC (Staphylococcus aureus [22]): 64 µg/mL; MIC (Serratia marcescens): > 64 µg/mL; MIC [24]: 8 µg/mL; MIC (Staphylococcus aureus [25]): 16 µg/mL; MIC (Proteus sp.): > 64 µg/mL; MIC (Staphylococcus aureus [28]): 8 µg/mL
Nc1ccc([N+](=O)[O-])cc1N						3.7											4.2				
CCCCCCCCCCCCCC(=O)OCCC[N+](C)(C)Cc1cnc(C)c2c1COC(CCCCCCCC)O2.[Cl-] (stereo not drawn)					> 64 µg/mL		> 64 µg/mL								> 64 µg/mL	> 64 µg/mL			5.25	> 64 µg/mL	
CCCCCC(=O)NCCC[N+](C)(C)Cc1cnc(C)c2c1COC(CCC)O2.[Cl-] (stereo not drawn)					> 64 µg/mL		> 64 µg/mL								> 64 µg/mL	> 64 µg/mL			-1.25	> 64 µg/mL	
CCCCCCCCCCCCCCCC(=O)OCCC[N+](C)(C)Cc1cnc(C)c2c1COC(C)(C)O2.[Cl-]					16 µg/mL		32 µg/mL								8 µg/mL	2 µg/mL			3.09	> 64 µg/mL	
CCCCCCCCCCCCCC(=O)NCCC[N+](C)(C)Cc1cnc(C)c2c1COC(CCCCC)O2.[Cl-] (stereo not drawn)					2 µg/mL		> 64 µg/mL								1 µg/mL	2 µg/mL			3.19	> 64 µg/mL	
